We go through four compounds from patent US11040979B2, “Substituted pyrrolo[1,2-b]pyridazines for treating disorders related to KIT and PDGFR” (Blueprint Medicines Corporation, priority 2017, dated 2021).

Structures are written as SMILES.

Test in all cases: Kinase profiling with recombinant enzyme, 33P-ATP filter-binding method
What all share (type): biochemical

For one experiment, the target named is PDGFRα D842V (Homo sapiens (Human), UniProt P16234, D842V). To be noted: poly[Glu:Tyr] (4:1), ATP (Km) 1 uM, read-out: INH-PDGFRα D842V (exon 18) IC50. Here is the method:
(§1) KIT, KIT mutant, and PDGFRα mutant kinase profiling was performed with recombinant enzymes including wild-type KIT, KIT V560G, KIT V559D/T670I, V559D/V654A, and PDGFRα D842V. Kinase/substrate pairs were prepared in reaction buffer (20 mM Hepes (pH 7.5), 10 mM MgCl2, 1 mM EGTA, 0.02% Brij35, 0.02 mg/ml BSA, 0.1 mM Na3VO4, 2 mM DTT, 1% DMSO). Compounds were dissolved at 10 mM in 100% DMSO, serial diluted and added to the kinase/substrate mix in final concentrations from 10 uM to 0.5 pM. Compounds were incubated with the recombinant enzymes and substrates at room temperature for 20 minutes with their respective Km for ATP. ^33P-ATP (10 mCi/mL) was added to initiate the reaction. Incubation for two hours at room temperature was followed by spotting onto P81 ion exchange paper and detection of kinase activity by a filter-binding method.
(§2) Conditions for Specific Enzyme Assays:
(§3) Data was normalized to 0% and 100% inhibition controls and the IC50 calculated using a 4-parameter curve fit.

In the next experiment the target is KIT V560G (Homo sapiens (Human), UniProt P10721, V560G). To be noted: c-KIT V560G, poly[Glu:Tyr] (4:1), ATP (Km) 20 uM; read-out: INH-KITV560G (exon 11) IC50. The protocol:
as §1, §2, §3

The target of another experiment is KIT V559D/T670I (Homo sapiens (Human), UniProt P10721, T670I/V559D). The following applies: c-KIT V559D/T670I, poly[Glu:Tyr] (4:1), ATP (Km) 5 uM; read-out: INH-KITV559D/T670I (exon 13) IC50. The protocol: as §1, §2, §3
The target of a further experiment is KIT V559D/V654A (Homo sapiens (Human), UniProt P10721, V559D/V654A). To be noted: c-KIT V559D/V654A, poly[Glu:Tyr] (4:1), ATP (Km) 20 uM; read-out: INH-KITV559D/V654A (exon 13) IC50. Here is the method: as §1, §2, §3
In the next experiment the target is wild-type KIT (Homo sapiens (Human), UniProt P10721). To be noted: c-KIT WT, poly[Glu:Tyr] (4:1), ATP (Km) 100 uM; read-out: INH-KITWT IC50. The protocol:
as §1, §2, §3

Chain of KIT V559D/T670I (P10721 26-976 V559D/T670I): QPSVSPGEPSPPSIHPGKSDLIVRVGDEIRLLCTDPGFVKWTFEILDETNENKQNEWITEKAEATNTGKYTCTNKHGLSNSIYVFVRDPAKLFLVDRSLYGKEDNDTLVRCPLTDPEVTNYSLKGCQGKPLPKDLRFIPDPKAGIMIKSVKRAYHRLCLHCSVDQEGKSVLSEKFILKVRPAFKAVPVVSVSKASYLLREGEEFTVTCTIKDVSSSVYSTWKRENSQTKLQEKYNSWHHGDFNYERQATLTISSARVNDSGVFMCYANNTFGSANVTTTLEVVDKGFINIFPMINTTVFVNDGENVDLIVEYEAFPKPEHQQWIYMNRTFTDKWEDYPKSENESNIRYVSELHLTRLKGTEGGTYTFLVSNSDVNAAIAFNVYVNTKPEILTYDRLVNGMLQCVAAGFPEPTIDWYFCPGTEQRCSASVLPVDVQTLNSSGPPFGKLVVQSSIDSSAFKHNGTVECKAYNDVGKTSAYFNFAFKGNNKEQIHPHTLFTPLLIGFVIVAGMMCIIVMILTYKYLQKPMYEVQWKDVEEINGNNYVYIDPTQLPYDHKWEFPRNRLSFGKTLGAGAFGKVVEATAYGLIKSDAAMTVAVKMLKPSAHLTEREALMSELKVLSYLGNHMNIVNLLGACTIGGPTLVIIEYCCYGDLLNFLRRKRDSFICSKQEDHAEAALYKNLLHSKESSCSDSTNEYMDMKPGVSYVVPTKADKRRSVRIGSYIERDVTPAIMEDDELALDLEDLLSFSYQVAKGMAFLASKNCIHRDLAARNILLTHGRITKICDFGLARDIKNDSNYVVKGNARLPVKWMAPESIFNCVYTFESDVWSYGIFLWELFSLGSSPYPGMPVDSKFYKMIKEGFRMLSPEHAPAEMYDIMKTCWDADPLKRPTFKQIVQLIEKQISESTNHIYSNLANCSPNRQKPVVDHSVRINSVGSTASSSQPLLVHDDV
Chain of KIT V560G (P10721 26-976 V560G): as the sequence (P10721 26-976 V559D/T670I) above, with D534V, V535G, I645T counted along it
Chain of PDGFRα D842V (P16234 24-1089 D842V): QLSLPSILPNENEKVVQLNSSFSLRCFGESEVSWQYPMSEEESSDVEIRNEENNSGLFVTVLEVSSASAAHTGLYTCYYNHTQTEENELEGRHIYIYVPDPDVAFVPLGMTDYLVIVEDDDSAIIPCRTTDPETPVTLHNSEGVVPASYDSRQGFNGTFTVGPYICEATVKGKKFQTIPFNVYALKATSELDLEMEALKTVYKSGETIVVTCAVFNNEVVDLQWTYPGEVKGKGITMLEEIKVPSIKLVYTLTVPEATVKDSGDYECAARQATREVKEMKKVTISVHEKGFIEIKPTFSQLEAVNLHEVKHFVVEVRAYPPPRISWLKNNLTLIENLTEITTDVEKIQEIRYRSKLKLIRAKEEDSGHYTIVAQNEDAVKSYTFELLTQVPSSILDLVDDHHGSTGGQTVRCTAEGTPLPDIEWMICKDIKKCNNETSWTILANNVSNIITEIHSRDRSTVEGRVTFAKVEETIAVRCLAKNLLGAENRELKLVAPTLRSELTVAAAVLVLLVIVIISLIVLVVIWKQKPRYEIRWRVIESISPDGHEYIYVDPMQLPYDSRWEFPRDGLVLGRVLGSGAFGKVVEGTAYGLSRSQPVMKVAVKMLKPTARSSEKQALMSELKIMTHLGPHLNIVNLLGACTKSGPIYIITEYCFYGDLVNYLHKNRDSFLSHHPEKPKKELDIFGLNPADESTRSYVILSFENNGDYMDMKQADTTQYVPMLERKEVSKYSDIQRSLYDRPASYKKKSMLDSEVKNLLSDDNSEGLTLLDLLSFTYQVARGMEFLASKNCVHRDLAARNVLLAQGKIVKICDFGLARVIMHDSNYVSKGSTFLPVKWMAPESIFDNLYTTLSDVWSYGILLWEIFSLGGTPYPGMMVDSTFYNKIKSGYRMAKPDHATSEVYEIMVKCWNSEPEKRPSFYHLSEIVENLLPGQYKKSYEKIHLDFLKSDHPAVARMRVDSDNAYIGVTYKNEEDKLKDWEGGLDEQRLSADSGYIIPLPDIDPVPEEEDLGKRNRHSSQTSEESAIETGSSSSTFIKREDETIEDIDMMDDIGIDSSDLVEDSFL
Chain of KIT V559D/V654A (P10721 26-976 V559D/V654A): as the sequence (P10721 26-976 V559D/T670I) above, with V629A, I645T counted along it
Chain of wild-type KIT (P10721 26-976): as the sequence (P10721 26-976 V559D/T670I) above, with D534V, I645T counted along it

With `Cn1cc(-c2cc3c(N4CCN(c5ncc([C@@](C)(N)c6ccc(F)cc6)cn5)CC4)ccnn3c2)cn1` [Compound 1, (S)-1-(4-fluorophenyl)-1-(2-(4-(6-(1-methyl-1H-pyrazol-4-yl)pyrrolo[1,2-b]pyridazin-4-yl)piperazin-1-yl)pyrimidin-5-yl)ethanamine], the IC50 at PDGFRα D842V was less than 0.001 µM; at KIT V560G, 0.00101 to 0.01 µM; on KIT V559D/T670I it was 0.00101 to 0.01 µM; on KIT V559D/V654A, 0.00101 to 0.01 µM; on wild-type KIT, greater than 0.1 µM.

On to `Cn1cc(-c2cc3c(N4CCN(c5ncc([C@@](C)(N)c6ccc(F)cc6)cn5)CC4)c(F)cnn3c2)cn1` [Compound 2, (S)-1-(2-(4-(3-fluoro-6-(1-methyl-11H-pyrazol-4-yl)pyrrolo[1,2-b]pyridazin-4-yl)piperazin-1-yl)pyrimidin-5-yl)-1-(4-fluorophenyl)ethanamine], for which the IC50 at PDGFRα D842V is less than 0.001 µM; on KIT V560G, 0.01 to 0.1 µM; at KIT V559D/T670I, 0.00101 to 0.01 µM; at KIT V559D/V654A it was 0.01 to 0.1 µM; on wild-type KIT, greater than 0.1 µM.

On to `Cn1cc(-c2cc3c(N4CCN(c5ncc([C@@](C)(N)c6ccc(F)cc6)cn5)CC4)c(Cl)cnn3c2)cn1` [Compound 3, (S)-1-(2-(4-(3-chloro-6-(1-methyl-1H-pyrazol-4-yl)pyrrolo[1,2-b]pyridazin-4-yl)piperazin-1-yl)pyrimidin-5-yl)-1-(4-fluorophenyl)ethanamine], for which the IC50 at PDGFRα D842V was less than 0.001 µM; at KIT V560G, 0.01 to 0.1 µM; at KIT V559D/T670I it was 0.00101 to 0.01 µM; on KIT V559D/V654A it was greater than 0.1 µM; on wild-type KIT, greater than 0.1 µM.

As to `Cn1cc(-c2cc3c(N4CCN(c5ncc([C@@](C)(N)c6ccc(F)cc6)cn5)CC4)c(C#N)cnn3c2)cn1` [Compound 4, (S)-4-(4-(5-(1-amino-1-(4-fluorophenyl)ethyl)pyrimidin-2-yl)piperazin-1-yl)-6-(1-methyl-1H-pyrazol-4-yl)pyrrolo[1,2-b]pyridazine-3-carbonitrile], the IC50 on PDGFRα D842V was less than 0.001 µM; on KIT V560G, 0.00101 to 0.01 µM; at KIT V559D/T670I, 0.00101 to 0.01 µM; on KIT V559D/V654A, 0.01 to 0.1 µM; at wild-type KIT, greater than 0.1 µM.
